Assay [1] is filed under the species Mus musculus. As to the kind of experiment: Ability to inhibit binding of [3H]taxol was determined. It is filed as functional.
The subject of assay [2] is J774. Nature of the assay: Drug concentration that inhibits cell division by 50% after 72 hr incubation for murine like macrophage cell line J774.2. Format: functional. The following applies: Mus musculus, J774, 72 h; read-out: ED50 (the source's name).

Ki and EC50 data for one compound are collected here from ChEMBL document CHEMBL1126601, “Synthesis of a photoaffinity analog of taxol as an approach to identify the taxol binding site on microtubules” (J Med Chem, 1993).

SMILES strings stand for the structures.

Consider `CC(=O)O[C@H]1C(=O)[C@@]2(C)C([C@H](CC(=O)c3ccccc3)[C@]3(O)C[C@H](OC(=O)[C@H](O)C(NC(=O)c4ccccc4)c4ccccc4)C(C)=C1C3(C)C)[C@]1(OC(C)=O)CO[C@@H]1C[C@@H]2O` (some centres not stated), for which affinity in assay [1] was put at a Ki of 2000 nM. In addition, the EC50 in assay [2] was determined as 50 nM.
